Measured values from US20220289794A1, “SYNTHETIC ANTIMICROBIAL PEPTIDES” (priority 2019, published 2022).
Values after ≈ are worked out from the molar mass of the structure shown. Non-standard residues stand in square brackets, D forms with d. Residues, ends and D or L forms follow the SMILES beside them. dDip = N[C@@H](C(=O)O)C(c1ccccc1)c1ccccc1; Dip = N[C@H](C(=O)O)C(c1ccccc1)c1ccccc1; 2Nal = N[C@@H](Cc1ccc2ccccc2c1)C(=O)O; d2Nal = N[C@H](Cc1ccc2ccccc2c1)C(=O)O; Dab = NCC[C@H](N)C(=O)O

Legend:
[1] = test system: Pseudomonas aeruginosa (ATCC 27883); conditions: ATCC 27883
in vitro = conditions: human, fresh human red blood cells (washed), pH 7.4
[2] = test system: Methicillin-resistant Staphylococcus aureus MRSA (ATCC BAA-1556); conditions: ATCC BAA-1556
S. aureus ATCC 29213 = conditions: ATCC 29213
[3] = test system: Escherichia coli (ATCC 25922); conditions: ATCC 25922
human red blood cells = test system: human red blood cells; design: unit not given beside the values

SMILES | MIC P. aeruginosa ATCC 27883 [1] [µg/mL] | HC50 at 0.5 h (in vitro) [µg/mL] | MIC MRSA ATCC BAA-1556 [2] [µg/mL] | MIC S. aureus ATCC 29213 (S. aureus ATCC 29213) [µg/mL] | MIC E. coli ATCC 25922 [3] [µg/mL] | HC50 (human red blood cells)
N=C(N)NCCC[C@@H]1NC(=O)[C@H](CCCNC(=N)N)NC(=O)[C@H](CCCNC(=N)N)NC(=O)[C@@H](CCCNC(=N)N)NC(=O)[C@H](Cc2ccc3ccccc3c2)NC(=O)[C@H](Cc2ccc3ccccc3c2)NC(=O)[C@H](Cc2ccc3ccccc3c2)NC1=O [IFX-080, c[arg-Arg-Arg-Arg-NaI-NaI-NaI]] (cyclo([dR]RRR[2Nal][2Nal][2Nal])) | 12.5 (≈ 10.3 µM) | 200 | – | – | – | –
N=C(N)NCCC[C@@H]1NC(=O)[C@H](Cc2ccc3ccccc3c2)NC(=O)[C@H](Cc2ccc3ccccc3c2)NC(=O)[C@H](Cc2ccc3ccccc3c2)NC(=O)[C@H](CCCNC(=N)N)NC(=O)[C@@H](CCCNC(=N)N)NC(=O)[C@H](CCCNC(=N)N)NC1=O [IFX-078, c[Arg-Arg-arg-Arg-NaI-NaI-NaI]] (cyclo(RR[dR]R[2Nal][2Nal][2Nal])) | 12.5 (≈ 10.3 µM) | 95 | – | – | – | –
N=C(N)NCCC[C@@H]1NC(=O)[C@H](CCCNC(=N)N)NC(=O)[C@@H](CCCNC(=N)N)NC(=O)[C@H](CCCNC(=N)N)NC(=O)[C@H](Cc2ccc3ccccc3c2)NC(=O)[C@H](Cc2ccc3ccccc3c2)NC(=O)[C@H](Cc2ccc3ccccc3c2)NC1=O [IFX-079, c[Arg-arg-Arg-Arg-NaI-NaI-NaI]] (cyclo(R[dR]RR[2Nal][2Nal][2Nal])) | 12.5 (≈ 10.3 µM) | 100 | – | – | – | –
N=C(N)NCCC[C@@H]1NC(=O)[C@H](Cc2ccc3ccccc3c2)NC(=O)[C@H](Cc2ccc3ccccc3c2)NC(=O)[C@H](Cc2ccc3ccccc3c2)NC(=O)[C@@H](CCCNC(=N)N)NC(=O)[C@H](CCCNC(=N)N)NC(=O)[C@H](CCCNC(=N)N)NC1=O [IFX-077, c[Arg-Arg-Arg-arg-NaI-NaI-NaI]] (cyclo(RRR[dR][2Nal][2Nal][2Nal])) | 12.5 (≈ 10.3 µM) | 100 | – | – | – | –
N=C(N)NCCC[C@@H]1NC(=O)[C@@H](CCCNC(=N)N)NC(=O)[C@H](CCCNC(=N)N)NC(=O)[C@@H](CCCNC(=N)N)NC(=O)[C@@H](C(c2ccccc2)c2ccccc2)NC(=O)[C@H](C(c2ccccc2)c2ccccc2)NC(=O)[C@@H](C(c2ccccc2)c2ccccc2)NC1=O [IFX-069, c[arg-Arg-arg-Arg-dip-Dip-dip]] (cyclo([dR]R[dR]R[dDip][Dip][dDip])) | 6.2 (≈ 4.79 µM) | 200 | – | – | – | –
N=C(N)NCCC[C@@H]1NC(=O)[C@H](CCCNC(=N)N)NC(=O)[C@H](CCCNC(=N)N)NC(=O)[C@H](Cc2ccc3ccccc3c2)NC(=O)[C@H](Cc2ccc3ccccc3c2)NC(=O)[C@H](Cc2ccc3ccccc3c2)NC(=O)[C@H](CCCNC(=N)N)NC(=O)[C@H](CCCNC(=N)N)NC1=O [IFX-013, c[Arg-Arg-Arg-Arg-Arg-NaI-NaI-NaI]] (cyclo([2Nal][2Nal][2Nal]RRRRR)) | 25 (≈ 18.2 µM) | – | 6.2 (≈ 4.52 µM) | 6.2 (≈ 4.52 µM) | 50 (≈ 36.4 µM) | 230
N=C(N)NCCC[C@@H]1NC(=O)[C@H](CCCNC(=N)N)NC(=O)[C@H](CCCNC(=N)N)NC(=O)[C@H](C(c2ccccc2)c2ccccc2)NC(=O)[C@H](C(c2ccccc2)c2ccccc2)NC(=O)[C@H](CCCNC(=N)N)NC1=O [IFX-010, c[Arg-Arg-Arg-Arg-Dip-Dip]] (cyclo([Dip][Dip]RRRR)) | 25 (≈ 23.3 µM) | – | 6.2 (≈ 5.79 µM) | 6.2 (≈ 5.79 µM) | 50 (≈ 46.7 µM) | 270
N=C(N)NCCC[C@@H]1NC(=O)[C@H](CCCNC(=N)N)NC(=O)[C@H](CCCNC(=N)N)NC(=O)[C@H](C(c2ccccc2)c2ccccc2)NC(=O)[C@H](C(c2ccccc2)c2ccccc2)NC(=O)[C@H](C(c2ccccc2)c2ccccc2)NC(=O)[C@H](CCCNC(=N)N)NC(=O)[C@H](CCCNC(=N)N)NC1=O [IFX-012, c[Arg-Arg-Arg-Arg-Arg-Dip-Dip-Dip]] (cyclo([Dip][Dip][Dip]RRRRR)) | 25 (≈ 17.2 µM) | – | 6.2 (≈ 4.27 µM) | 6.2 (≈ 4.27 µM) | 25 (≈ 17.2 µM) | 195
NCCCC[C@@H]1NC(=O)[C@H](CCCCN)NC(=O)[C@H](CCCCN)NC(=O)[C@H](C(c2ccccc2)c2ccccc2)NC(=O)[C@H](C(c2ccccc2)c2ccccc2)NC(=O)[C@H](C(c2ccccc2)c2ccccc2)NC(=O)[C@H](CCCCN)NC1=O [IFX-014, c[Lys-Lys-Lys-Lys-Dip-Dip-Dip]] (cyclo([Dip][Dip][Dip]KKKK)) | >100 | – | 12.5 (≈ 10.6 µM) | 12.5 (≈ 10.6 µM) | >100 | 415
C[C@@H]1NC(=O)[C@H](C)NC(=O)[C@H](CCCNC(=N)N)NC(=O)[C@H](CCCNC(=N)N)NC(=O)[C@H](CCCNC(=N)N)NC(=O)[C@H](CCCNC(=N)N)NC(=O)[C@H](C)NC(=O)[C@H](C)NC(=O)[C@H](Cc2c[nH]c3ccccc23)NC(=O)[C@H](Cc2c[nH]c3ccccc23)NC(=O)[C@H](Cc2c[nH]c3ccccc23)NC(=O)[C@H](Cc2c[nH]c3ccccc23)NC1=O [IFX-045] (cyclo(AARRRRAAWWWW)) | 50 (≈ 30.2 µM) | – | 25 (≈ 15.1 µM) | 25 (≈ 15.1 µM) | 50 (≈ 30.2 µM) | 390
N=C(N)NCCC[C@@H]1NC(=O)[C@H](CCCNC(=N)N)NC(=O)[C@H](CCCNC(=N)N)NC(=O)[C@H](C(c2ccccc2)c2ccccc2)NC(=O)[C@H](C(c2ccccc2)c2ccccc2)NC(=O)[C@H](C(c2ccccc2)c2ccccc2)NC(=O)[C@H](C(c2ccccc2)c2ccccc2)NC(=O)[C@H](CCCNC(=N)N)NC1=O [IFX-005, c[Arg-Arg-Arg-Arg-Dip-Dip-Dip-Dip]] (cyclo([Dip][Dip][Dip][Dip]RRRR)) | 25 (≈ 16.5 µM) | – | 6.2 (≈ 4.08 µM) | 3.1 (≈ 2.04 µM) | 25 (≈ 16.5 µM) | 95

The remaining lines, values ahead:

MIC P. aeruginosa ATCC 27883 [1] [µg/mL] | HC50 at 0.5 h (in vitro) [µg/mL] | MIC MRSA ATCC BAA-1556 [2] [µg/mL] | MIC S. aureus ATCC 29213 (S. aureus ATCC 29213) [µg/mL] | MIC E. coli ATCC 25922 [3] [µg/mL] | HC50 (human red blood cells) | SMILES
50 (≈ 44.7 µM) | – | 12.5 (≈ 11.2 µM) | 12.5 (≈ 11.2 µM) | 25 (≈ 22.3 µM) | 380 | N=C(N)NCCC[C@H](NC(=O)[C@H](CCCNC(=N)N)NC(=O)[C@@H](N)CCCNC(=N)N)C(=O)N[C@H](C(=O)N[C@H](C(=O)N[C@@H](Cc1c[nH]c2ccccc12)C(=O)O)C(c1ccccc1)c1ccccc1)C(c1ccccc1)c1ccccc1 [IFX-022-1, NH2-R-R-R-Dip-Dip-Trp-OH] (H-RRR[Dip][Dip]W-OH)
25 (≈ 20.4 µM) | – | 6.2 (≈ 5.07 µM) | 6.2 (≈ 5.07 µM) | 12.5 (≈ 10.2 µM) | 430 | N=C(N)NCCC[C@H](NC(=O)[C@H](CCCNC(=N)N)NC(=O)[C@H](CCCNC(=N)N)NC(=O)[C@@H](N)CCCNC(=N)N)C(=O)N[C@@H](Cc1ccc2ccccc2c1)C(=O)N[C@@H](Cc1c[nH]c2ccccc12)C(=O)N[C@@H](Cc1ccc2ccccc2c1)C(=O)O [IFX-030-1, NH2-R-R-R-R-NaI-Trp-NaI-OH] (H-RRRR[2Nal]W[2Nal]-OH)
12.5 (≈ 10.3 µM) | – | 1.5 (≈ 1.23 µM) | 1.5 (≈ 1.23 µM) | 25 (≈ 20.6 µM) | 205 | N=C(N)NCCC[C@@H]1NC(=O)[C@H](CCCNC(=N)N)NC(=O)[C@H](CCCNC(=N)N)NC(=O)[C@H](Cc2ccc3ccccc3c2)NC(=O)[C@H](Cc2ccc3ccccc3c2)NC(=O)[C@H](Cc2ccc3ccccc3c2)NC(=O)[C@H](CCCNC(=N)N)NC1=O [IFX-009, c[Arg-Arg-Arg-Arg-NaI-NaI-NaI]] (cyclo(RRRR[2Nal][2Nal][2Nal]))
50 (≈ 46.8 µM) | – | 12.5 (≈ 11.7 µM) | 12.5 (≈ 11.7 µM) | 25 (≈ 23.4 µM) | 375 | N=C(N)NCCC[C@H](NC(=O)[C@H](CCCNC(=N)N)NC(=O)[C@@H](N)CCCNC(=N)N)C(=O)N[C@@H](Cc1ccc2ccccc2c1)C(=O)N[C@@H](Cc1ccc2ccccc2c1)C(=O)N[C@@H](Cc1c[nH]c2ccccc12)C(=O)O [IFX-025-1, NH2-R-R-R-NaI-NaI-Trp-OH] (H-RRR[2Nal][2Nal]W-OH)
25 (≈ 20.3 µM) | – | 25 (≈ 20.3 µM) | 12.5 (≈ 10.1 µM) | 25 (≈ 20.3 µM) | 395 | N=C(N)NCCC[C@H](NC(=O)[C@H](CCCNC(=N)N)NC(=O)[C@H](Cc1ccc2ccccc2c1)NC(=O)[C@H](Cc1ccc2ccccc2c1)NC(=O)[C@H](CCCNC(=N)N)NC(=O)[C@@H](N)CCCNC(=N)N)C(=O)N[C@@H](Cc1ccc2ccccc2c1)C(=O)O [IFX-019-1, NH2-Arg-Arg-NaI-NaI-Arg-Arg-NaI-OH] (H-RR[2Nal][2Nal]RR[2Nal]-OH)
32 (≈ 24.5 µM) | – | 64 (≈ 49 µM) | 32 (≈ 24.5 µM) | 32 (≈ 24.5 µM) | 415 | N=C(N)NCCC[C@@H]1NC(=O)[C@H](CCN)NC(=O)[C@@H](Cc2ccc3ccccc3c2)NC(=O)[C@@H](Cc2ccc3ccccc3c2)NC(=O)[C@H](Cc2c[nH]c3ccccc23)NC(=O)[C@@H](CCCNC(=N)N)NC(=O)[C@H](CCCNC(=N)N)NC(=O)[C@@H](CCCNC(=N)N)NC1=O [IFX-056, c[Dab-Arg-arg-Arg-arg-Trp-naI-naI]] (cyclo([Dab]R[dR]R[dR]W[d2Nal][d2Nal]))
50 (≈ 45.9 µM) | – | 12.5 (≈ 11.5 µM) | 12.5 (≈ 11.5 µM) | 50 (≈ 45.9 µM) | 360 | N=C(N)NCCC[C@H](NC(=O)[C@H](CCCNC(=N)N)NC(=O)[C@@H](N)CCCNC(=N)N)C(=O)N[C@@H](CCCNC(=N)N)C(=O)N[C@H](C(=O)N[C@H](C(=O)O)C(c1ccccc1)c1ccccc1)C(c1ccccc1)c1ccccc1 [IFX-010-1, NH2-Arg-Arg-Arg-Arg-Dip-Dip-OH] (H-RRRR[Dip][Dip]-OH)
